Results as given in patent US10870635B2, “Compounds and their use as BACE1 inhibitors” (ALLGENESIS BIOTHERAPEUTICS, INC., priority 2015, dated 2020).

These compounds were tested against BACE1 (recombinant β-secretase enzyme) (Homo sapiens (Human), UniProt P56817) (assay: AnaSpec BACE1 fluorescent assay (beta-secretase activity assay)).
Sequence of BACE1 (recombinant β-secretase enzyme) (P56817 46-501): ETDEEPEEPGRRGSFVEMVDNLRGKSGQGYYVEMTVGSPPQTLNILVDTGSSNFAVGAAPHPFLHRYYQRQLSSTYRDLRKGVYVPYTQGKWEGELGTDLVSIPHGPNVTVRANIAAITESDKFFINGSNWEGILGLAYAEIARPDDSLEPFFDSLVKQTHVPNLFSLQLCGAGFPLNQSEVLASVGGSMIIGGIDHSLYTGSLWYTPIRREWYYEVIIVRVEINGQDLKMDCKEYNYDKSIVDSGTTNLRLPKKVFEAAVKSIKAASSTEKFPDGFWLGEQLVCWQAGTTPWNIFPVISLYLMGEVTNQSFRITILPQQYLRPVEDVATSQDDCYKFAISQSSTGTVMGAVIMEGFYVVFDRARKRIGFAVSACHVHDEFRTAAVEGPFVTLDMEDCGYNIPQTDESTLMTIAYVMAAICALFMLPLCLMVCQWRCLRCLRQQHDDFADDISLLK
Format: biochemical
Description: A BACE1 activity assay kit from AnaSpec (Fremont, Calif.) was used to determine the potency of the selected BACE1 inhibitors by AnaSpec BACE1 fluorescent assay. The recombinant β-secretase enzyme was diluted 1:200 in 1× assay buffer (1 part of 1× assay buffer and 1 part of TBS containing 0.1% Tween 20). The enzyme was added in a volume of 40 μl to each well of a black 96-well micro plate.
The BACE1 inhibitors were serially diluted into DMSO from their 10 mM stock concentrations in DMSO. The serially diluted inhibitors were diluted 1:100 into 1× assay buffer in a 96-well polypropylene plate (assay dilution plate). The final concentration of the BACE1 inhibitor tested was 300 nM, 100 nM, 30 nM, 10 nM, 3 nM, 1 nM 0.3 nM, and 0.00 nM. Dose responses for inhibitors were run in duplicate.
A volume of 10 μl of the inhibitor from the assay dilution plate, a control inhibitor LY2886721 or inhibitor vehicle was then added to each well of the black 96-well micro plate containing BACE1.
To each well of the black 96-well micro plate, 50 μl of the β-secretase substrate (Hylite Fluor 488) diluted 1:100 using assay buffer was added. The reagents were mixed gently and the assay plate was placed into a POLARstar fluorescent plate reader with excitation wavelength set at 485 nm and the emission wavelength set at 520 nm. The plate reader was set to take readings every 5 minutes for up to 30 minutes or a 30 minute endpoint reading was used.
An appropriate integrated first-order rate equation was used to fit the data accumulated over a 30-40 minute collection period.
For `CN1C(=N)N[C@](C)(c2ccc3sc4ccc(C#N)cc4c3c2)CC1=O` [Example 85, (S)-8-(2-Imino-1,4-dimethyl-6-oxohexahydropyrimidin-4-yl) dibenzo[b,d]thiophene-2-carbonitrile], the IC50 was over 300 nM. `CC#Cc1ccc2sc3ccc([C@]4(C)CC(=O)N(CCOC)C(=N)N4)cc3c2c1` [Example 106, (S)-2-Imino-3-(2-methoxyethyl)-6-methyl-6-(8-(prop-1-yn-1-yl)dibenzo[b,d]thiophen-2-yl)tetrahydropyrimidin-4(1H)-one] was tested, and the IC50 was over 300 nM. `CN1C(=N)N[C@](C)(c2ccc3sc4ccc(C(F)(F)F)cc4c3c2)CC1=O` [Example 94, (S)-2-Amino-3,6-dimethyl-6-(8-(trifluoromethyl)dibenzo[b,d]thiophen-2-yl)-5,6-di hydropyrimidin-4(3H)-one] showed an IC50 of 81 nM. `CCCc1ccc2sc3ccc([C@]4(C)CC(=O)N(C)C(=N)N4)cc3c2c1` [Example 89, (S)-2-Imino-3,6-dimethyl-6-(8-propyl-dibenzo[b,d]thiophen-2-yl)tetrahydro-pyrimidin-4(1H)-one] was tested, and the IC50 was over 300 nM. `CN1C(=N)N[C@](C)(c2ccc3sc4ccc(Br)cc4c3c2)CC1=O` [Example 88, (S)-6-(8-Bromodibenzo[b,d]thiophen-2-yl)-2-imino-3,6-dimethyltetrahydro-pyrimidin-4(1H)-one] showed an IC50 of over 300 nM. In the case of `CN1C(=N)N[C@](C)(c2ccc3sc4ccc(C5CC5)cc4c3c2)CC1=O` [Example 90, (S)-6-(8-Cyclopropyldibenzo[b,d]thiophen-2-yl)-2-imino-3,6-dimethyl-tetrahydropyrimidin-4(1H)-one], the IC50 is reported as 78 nM. Work on `CCN(CC)c1ccc2sc3ccc([C@]4(C)CC(=O)N(C)C(=N)N4)cc3c2c1` [Example 92, (S)-6-(8-(Diethylamino)dibenzo[b,d]thiophen-2-yl)-2-imino-3,6-dimethyl-tetrahydropyrimidin-4(1H)-one] yielded an IC50 of over 300 nM. With `CC#Cc1ccc2c(c1)-c1cc([C@]3(C)CC(=O)N(C)C(=N)N3)ccc1S2(=O)=O` [Example 79, (S)-2-Amino-6-(5,5-dioxido-8-(prop-1-yn-1-yl)dibenzo[b,d]thiophen-2-yl)-3,6-dimethyl-5,6-dihydropyrimidin-4(3H)-one] the IC50 was 87 nM. Work on `CC#Cc1ccc2sc3ccc([C@]4(C)CN(C)C(=O)C(=N)N4)cc3c2c1` [Example 115, (R)-3-Imino-1,5-dimethyl-5-(8-(prop-1-yn-1-yl)dibenzo[b,d]thiophen-2-yl) piperazin-2-one] yielded an IC50 of over 300 nM. Compound `CC#Cc1ccc2sc3ccc([C@]4(C)CC(=O)N(CC(F)F)C(=N)N4)cc3c2c1` [Example 105, (S)-3-(2,2-Difluoroethyl)-2-imino-6-methyl-6-(8-(prop-1-yn-1-yl)dibenzo [b,d]thiophen-2-yl)tetrahydropyrimidin-4(1H)-one] has an IC50 of over 300 nM. With `CC#Cc1ccc2sc3ccc([C@@]4(C)NC(=N)OCC4(F)F)cc3c2c1` [Example 100, (R)-5,5-Difluoro-4-methyl-4-(8-(prop-1-yn-1-yl)dibenzo[b,d]thiophen-2-yl)-1,3-oxazinan-2-imine] the IC50 was 202 nM. In the case of `CN1C(=N)N[C@](C)(c2ccc3sc4ccc(C(N)=O)cc4c3c2)CC1=O` [Example 91, (S)-8-(2-Imino-1,4-dimethyl-6-oxohexahydropyrimidin-4-yl)dibenzo [b,d]thiophene-2-carboxamide], the IC50 is reported as over 300 nM. `COCC#Cc1ccc2sc3ccc([C@]4(C)CC(=O)N(C)C(=N)N4)cc3c2c1` [Example 86, (S)-2-Amino-6-(8-(3-methoxyprop-1-yn-1-yl)dibenzo[b,d]thiophen-2-yl)-3,6-dimethyl-5,6-dihydropyrimidin-4(3H)-one] showed an IC50 of 218 nM. `CC#Cc1ccc2c(c1)-c1cc([C@]3(C)CC(=O)N(C)C(=N)N3)ccc1C2(C)C` [Example 81, (S)-6-(9,9-Dimethyl-6-(prop-1-yn-1-yl)-9H-fluoren-3-yl)-2-imino-3,6-dimethyl-tetrahydropyrimidin-4(1H)-one] showed an IC50 of over 300 nM. `CN1C(=N)N[C@](C)(c2ccc3sc4ccc(C#CCO)cc4c3c2)CC1=O` [Example 87, (S)-2-Amino-6-(8-(3-hydroxyprop-1-yn-1-yl)dibenzo[b,d]thiophen-2-yl)-3,6-dimethyl-5,6-dihydropyrimidin-4(3H)-one] gave an IC50 of 17 nM. Compound `CC#Cc1ccc2c(c1)-c1cc([C@]3(C)CC(=O)N(C)C(=N)N3)ccc1C2(F)F` [Example 82, (S)-6-(9,9-Difluoro-6-(prop-1-yn-1-yl)-9H-fluoren-3-yl)-2-imino-3,6-dimethyltetrahydropyrimidin-4(1H)-one] has an IC50 of over 300 nM. Work on `CC#Cc1ccc2sc3ccc([C@]4(C5CC5)CC(=O)N(C)C(=N)N4)cc3c2c1` [Example 99, (R)-6-Cyclopropyl-2-imino-3-methyl-6-(8-(prop-1-yn-1-yl)dibenzo[b,d]thiophen-2-yl)tetrahydropyrimidin-4(1H)-one] yielded an IC50 of over 300 nM. Compound `CC#Cc1ccc2sc3ccc([C@]4(C)CS(=O)(=O)N(C)C(=N)N4)cc3c2c1` [Example 104, (R)-3-Imino-2,5-dimethyl-5-(8-(prop-1-yn-1-yl)dibenzo[b,d]thiophen-2-yl)-1,2,4-thiadiazinane 1,1-dioxide] has an IC50 of over 300 nM. With `CC#Cc1ccc2c(c1)c1cc([C@]3(C)CC(=O)N(C)C(=N)N3)ccc1[s+]2[O-]` (stereo partly drawn) [Example 80, (6S)-2-Amino-3,6-dimethyl-6-(5-oxido-8-(prop-1-yn-1-yl)dibenzo[b,d]thiophen-2-yl)-5,6-dihydropyrimidin-4(3H)-one] the IC50 was 48 nM.
